Experimental data taken from PubChem BioAssay AID2060498 (Molecular Pharmacology Branch, DTP, NCI, 2025).

Tested on: 171881-019-R-J1-PDC tumor spheroids, viability
Assay: Anticancer human tumor 171881-019-R-J1-PDC patient-derived invasive breast carcinoma cell line growth inhibition [GQUAD]
Conditions: spheroids with HUVEC and MSC; for IC50: curve of first compound; for viability, T/C: stronger effect = lower value
Outline: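 Tumor cells were grown as complex spheroids with HUVEC endothelial cells and mesenchymal stem cells as stroma. G-quadruplex stabilizers were combined with targeted agents over half-log dilutions from near the clinical Cmax, or from 10 microM.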

[1] = second compound 0.0316 µM, first compound 0.0316 µM
[2] = second compound 0.0316 µM, first compound 0.1 µM
[3] = second compound 0.0316 µM, first compound 0.316 µM
[4] = second compound 0.0316 µM, first compound 1 µM
[5] = second compound 0.0316 µM, first compound 3.16 µM
[6] = second compound 0.0316 µM, first compound 10 µM
[7] = second compound 0.1 µM, first compound 0.0316 µM
[8] = second compound 0.1 µM, first compound 0.1 µM
[9] = second compound 0.1 µM, first compound 0.316 µM
[10] = second compound 0.1 µM, first compound 1 µM
[11] = second compound 0.1 µM, first compound 3.16 µM
[12] = second compound 0.1 µM, first compound 10 µM
[13] = second compound 0.316 µM, first compound 0.0316 µM
[14] = second compound 0.316 µM, first compound 0.1 µM
[15] = second compound 0.316 µM, first compound 0.316 µM
[16] = second compound 0.316 µM, first compound 1 µM
[17] = second compound 0.316 µM, first compound 3.16 µM
[18] = second compound 0.316 µM, first compound 10 µM
[19] = second compound 1 µM, first compound 0.0316 µM
[20] = second compound 1 µM, first compound 0.1 µM
[21] = second compound 1 µM, first compound 0.316 µM
[22] = second compound 1 µM, first compound 1 µM
[23] = second compound 1 µM, first compound 3.16 µM
[24] = second compound 1 µM, first compound 10 µM
[25] = second compound 3.16 µM, first compound 0.0316 µM
[26] = second compound 3.16 µM, first compound 0.1 µM
[27] = second compound 3.16 µM, first compound 0.316 µM
[28] = second compound 3.16 µM, first compound 1 µM
[29] = second compound 3.16 µM, first compound 3.16 µM
[30] = second compound 3.16 µM, first compound 10 µM
[31] = second compound 10 µM, first compound 0.0316 µM
[32] = second compound 10 µM, first compound 0.1 µM
[33] = second compound 10 µM, first compound 0.316 µM
[34] = second compound 10 µM, first compound 1 µM
[35] = second compound 10 µM, first compound 3.16 µM
[36] = second compound 10 µM, first compound 10 µM
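Note: spheroids exposed to compounds for 7 days.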
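Throughout, for viability, T/C: 100% = DMSO vehicle control viability.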

Work on `C=CC(=O)N1CCN(c2nc(=O)n(-c3c(C)ccnc3C(C)C)c3nc(-c4c(O)cccc4F)c(F)cc23)C(C)C1` (stereo unspecified) + Cc1[nH]c2ccc(F)cc2c1-c1nc2c3cccnc3c3ncccc3c2[nH]1 yielded an IC50 (second compound 0.0316 µM) of 9.2 µM, an IC50 (second compound 0.1 µM) of 9.55 µM and an IC50 (second compound 0.316 µM) of 8.67 µM. For the same molecule, the IC50 (second compound 1 µM) was 7.98 µM, the IC50 (second compound 3.16 µM) was less than 0.0316 µM and the IC50 (second compound 10 µM) was less than 0.0316 µM. The viability, T/C [1] was 92.1%, the viability, T/C [2] was 91.5% and the viability, T/C [3] was 84.8%. For the same molecule, the viability, T/C [4] was 109%, the viability, T/C [5] was 90% and the viability, T/C [6] was 46.5%. It also gave a viability, T/C [7] of 83%, a viability, T/C [8] of 92% and a viability, T/C [9] of 101%. For the same molecule, the viability, T/C [10] was 112%, the viability, T/C [11] was 87.9% and the viability, T/C [12] was 48.4%. For the same molecule, the viability, T/C [13] was 100%, the viability, T/C [14] was 94.2% and the viability, T/C [15] was 91.4%. It also gave a viability, T/C [16] of 104%, a viability, T/C [17] of 92.8% and a viability, T/C [18] of 43.7%. The viability, T/C [19] was 84.9%, the viability, T/C [20] was 80.1% and the viability, T/C [21] was 76.2%. It also gave a viability, T/C [22] of 79.5%, a viability, T/C [23] of 85.4% and a viability, T/C [24] of 42.4%. It also gave a viability, T/C [25] of 21.9%, a viability, T/C [26] of 16.6% and a viability, T/C [27] of 26.8%. The viability, T/C [28] was 21.9%, the viability, T/C [29] was 24.5% and the viability, T/C [30] was 16%. It also gave a viability, T/C [31] of 38.5%, a viability, T/C [32] of 41.4% and a viability, T/C [33] of 41.6%. For the same molecule, the viability, T/C [34] was 47.6%, the viability, T/C [35] was 44.9% and the viability, T/C [36] was 34.1%.
`CC1COCCN1c1cc(C2(S(C)(=N)=O)CC2)nc(-c2ccnc3[nH]ccc23)n1` (stereo unspecified) + CN(C)c1ccc(Nc2c3ccc(NC(=O)CCN4CCCC4)cc3nc3cc(NC(=O)CCN4CCCC4)ccc23)cc1 showed an IC50 (second compound 0.0316 µM) of 1.37 µM, an IC50 (second compound 0.1 µM) of 1.19 µM and an IC50 (second compound 0.316 µM) of 0.667 µM. The IC50 (second compound 1 µM) was less than 0.0316 µM, the IC50 (second compound 3.16 µM) was less than 0.0316 µM and the IC50 (second compound 10 µM) was less than 0.0316 µM. The viability, T/C [1] was 97.3%, the viability, T/C [2] was 109% and the viability, T/C [3] was 99.8%. It also gave a viability, T/C [4] of 62.6%, a viability, T/C [5] of 15.8% and a viability, T/C [6] of 6.43%. It also gave a viability, T/C [7] of 98.9%, a viability, T/C [8] of 99.1% and a viability, T/C [9] of 81%. For the same molecule, the viability, T/C [10] was 59.1%, the viability, T/C [11] was 16.8% and the viability, T/C [12] was 6.7%. For the same molecule, the viability, T/C [13] was 77.7%, the viability, T/C [14] was 88% and the viability, T/C [15] was 63%. The viability, T/C [16] was 41.6%, the viability, T/C [17] was 16.7% and the viability, T/C [18] was 4.97%. The viability, T/C [19] was 26%, the viability, T/C [20] was 13.1% and the viability, T/C [21] was 20.5%. The viability, T/C [22] was 11.9%, the viability, T/C [23] was 7.12% and the viability, T/C [24] was 2.2%. The viability, T/C [25] was 1.87%, the viability, T/C [26] was 1.5% and the viability, T/C [27] was 1.71%. For the same molecule, the viability, T/C [28] was 0.99%, the viability, T/C [29] was 0.76% and the viability, T/C [30] was 0.35%. For the same molecule, the viability, T/C [31] was 0.19%, the viability, T/C [32] was 0.55% and the viability, T/C [33] was 0.48%. It also gave a viability, T/C [34] of 0.52%, a viability, T/C [35] of 0.54% and a viability, T/C [36] of 0.25%.
`COc1ncnc(C2CC2)c1-c1ncc2cnn(Cc3ccc(-c4nc(C(F)(F)F)cn4C(C)C)cc3)c2n1` + Cc1[nH]c2ccc(F)cc2c1-c1nc2c3cccnc3c3ncccc3c2[nH]1 showed an IC50 (second compound 0.0316 µM) greater than 10 µM, an IC50 (second compound 0.1 µM) greater than 10 µM and an IC50 (second compound 0.316 µM) greater than 10 µM. The IC50 (second compound 1 µM) was greater than 10 µM, the IC50 (second compound 3.16 µM) was less than 0.0316 µM and the IC50 (second compound 10 µM) was less than 0.0316 µM. For the same molecule, the viability, T/C [1] was 88.4%, the viability, T/C [2] was 93.6% and the viability, T/C [3] was 97.8%. It also gave a viability, T/C [4] of 104%, a viability, T/C [5] of 90.5% and a viability, T/C [6] of 88.4%. It also gave a viability, T/C [7] of 97.5%, a viability, T/C [8] of 87.9% and a viability, T/C [9] of 99.1%. It also gave a viability, T/C [10] of 98.8%, a viability, T/C [11] of 83.1% and a viability, T/C [12] of 81.8%. It also gave a viability, T/C [13] of 71.4%, a viability, T/C [14] of 74.2% and a viability, T/C [15] of 75.4%. It also gave a viability, T/C [16] of 72%, a viability, T/C [17] of 72.3% and a viability, T/C [18] of 62.7%. For the same molecule, the viability, T/C [19] was 65.1%, the viability, T/C [20] was 54.2% and the viability, T/C [21] was 59.4%. For the same molecule, the viability, T/C [22] was 60.3%, the viability, T/C [23] was 71.1% and the viability, T/C [24] was 60.3%. It also gave a viability, T/C [25] of 8.81%, a viability, T/C [26] of 4.91% and a viability, T/C [27] of 7.33%. It also gave a viability, T/C [28] of 8.01%, a viability, T/C [29] of 11.8% and a viability, T/C [30] of 6.52%. For the same molecule, the viability, T/C [31] was 40.8%, the viability, T/C [32] was 38.5% and the viability, T/C [33] was 30.7%. It also gave a viability, T/C [34] of 50%, a viability, T/C [35] of 42.6% and a viability, T/C [36] of 35.2%.
